Eleven compounds from US12509466B2, “Methods and compounds for treating paramyxoviridae virus infections” (Gilead Sciences, Inc., priority 2010, dated 2025) can be followed below.

Data set [1] deals with RSV strain A2. Nature of the data set: Anti-RSV cytoprotection assay in Hep2 cells. The class given is cell-based. Conditions: human respiratory syncytial virus, HEp-2, 96 h. On the procedure:
Antiviral activity against RSV is determined using an in vitro cytoprotection assay in Hep2 cells. […] The method used is similar to methods previously described in published literature (Chapman et al., Antimicrob Agents Chemother. 2007, 51(9):3346-53.)
Hep2 cells are obtained from ATCC (Manassas, VI) and maintained in MEM media supplemented with 10% fetal bovine serum and penicillin/streptomycin. Cells are passaged twice a week and kept at subconfluent stage. Commercial stock of RSV strain A2 (Advanced Biotechnologies, Columbia, MD) is titered before compound testing to determine the appropriate dilution of the virus stock that generates desirable cytopathic effect in Hep2 cells.
For antiviral tests, Hep2 cells are seeded into 96-well plates 24 hours before the assay at a density of 3,000 cells/well. On a separate 96 well plate, compounds to be tested are serially diluted in cell culture media. Eight concentrations in 3-fold serial dilution increments are prepared for each tested compound and 100 uL/well of each dilution is transferred in duplicate onto plates with seeded Hep2 cells. Subsequently, appropriate dilution of virus stock previously determined by titration is prepared in cell culture media and 100 uL/well is added to test plates containing cells and serially diluted compounds. Each plate includes three wells of infected untreated cells and three wells of uninfected cells that served as 0% and 100% virus inhibition control, respectively. Following the infection with RSV, testing plates are incubated for 4 days in a tissue culture incubator. After the incubation, RSV-induced cytopathic effect is determined using a Cell TiterGlo reagent (Promega, Madison, WI) followed by a luminescence read-out. The percentage inhibition is calculated for each tested concentration relative to the 0% and 100% inhibition controls and the EC50 value for each compound is determined by non-linear regression as a concentration inhibiting the RSV-induced cytopathic effect by 50%. Ribavirin (purchased from Sigma, St. Louis, MO) is used as a positive control for antiviral activity.

Data set [2] can be described thus: Cytotoxicity in uninfected Hep2 cells. The class given is cell-based. Conditions: human, CellTiter Glo. On the procedure: Cytotoxicity of tested compounds is determined in uninfected Hep2 cells in parallel with the antiviral activity using the cell viability reagent in a similar fashion as described before for other cell types (Cihlar et al., Antimicrob Agents Chemother. 2008, 52(2):655-65.). The same protocol as for the determination of antiviral activity is used for the measurement of compound cytotoxicity except that the cells are not infected with RSV. Instead, fresh cell culture media (100 uL/well) without the virus is added to tested plates with cells and prediluted compounds. Cells are then incubated for 4 days followed by a cell viability test using CellTiter Glo reagent and a luminescence read-out. Untreated cell and cells treated with 50 ug/mL puromycin (Sigma, St. Louis, MO) are used as 100% and 0% cell viability control, respectively. The percent of cell viability is calculated for each tested compound concentration relative to the 0% and 100% controls and the CC50 value is determined by non-linear regression as a compound concentration reducing the cell viability by 50%.

Data set [3] deals with T1, RSV ribonucleoprotein (RNP) complexes (Human respiratory syncytial virus A, UniProt P28887).
T1 construct: The supernatant (S3) fraction, containing the enriched RSV RNP complexes, was collected; endogenous in cells; host or cells: HEp-2 cells infected with RSV A2; crude detergent-extracted S3 fraction
Nature of the data set: RSV RNP transcription assay. The class given is biochemical, RSV A2. The settings on record: reduction of total radiolabled transcripts by 50%, 90 minute incubation at 30° C.
Protocol: HEp-2 cells were plated at a density of 7.1×10^4 cells/cm^2 in MEM+10% fetal bovine serum (FBS) and allowed to attach overnight at 37° C. (5% CO2). Following attachment, the cells were infected with RSV A2 (MOI=5) in 35 mL MEM+2% FBS. At 20 hours post-infection, the media was replaced with MEM+2% FBS supplemented with 2 μg/mL actinomycin D and returned to 37° C. for one hour. The cells were then washed once with PBS and treated with 35 mL of PBS+250 μg/mL lyso-lecithin for one minute, after which all liquid was aspirated. The cells were harvested by scrapping them into 1.2 mL of buffer A [50 mM TRIS acetate (pH 8.0), 100 mM potassium acetate, 1 mM DTT and 2 μg/mL actinomycin D] and lysed by repeated passage through an 18 gauge needle (10 times). The cell lysate was placed in ice for 10 minutes and then centrifuged at 2400 g for 10 minutes at 4° C. The supernatant (S1) was removed and the pellet (P1) was disrupted in 600 uL of Buffer B [10 mM TRIS acetate (pH 8.0), 10 mM potassium acetate and 1.5 mM MgCl2] supplemented with 1% Triton X-100 by repeated passage through an 18 gauge needle (10 times). The resuspended pellet was placed in ice for 10 minutes and then centrifuged at 2400 g for 10 minutes at 4° C. The supernatant (S2) was removed and the pellet (P2) was disrupted in 600 uL of Buffer B supplemented with 0.5% deoxycholate and 0.1% Tween 40. The resuspended pellet was placed in ice for 10 minutes and then centrifuged at 2400 g for 10 minutes at 4° C. The supernatant (S3) fraction, containing the enriched RSV RNP complexes, was collected and the protein concentration determined by UV absorbance at 280 nm. Aliquoted RSV RNP S3 fractions were stored at −80° C.
Transcription reactions contained 25 μg of crude RSV RNP complexes in 30 μL of reaction buffer [50 mM TRIS-acetate (pH 8.0), 120 mM potassium acetate, 5% glycerol, 4.5 mM MgCl2, 3 mM DTT, 2 mM ethyleneglycol-bis(2-aminoethylether)-tetraacetic acid (EGTA), 50 μg/mL BSA, 2.5 U RNasin (Promega), ATP, GTP, UTP, CTP and 1.5 uCi [α-^32P] NTP (3000 Ci/mmol)]. The radiolabled nucleotide used in the transcription assay was selected to match the nucleotide analog being evaluated for inhibition of RSV RNP transcription. […] The three remaining nucleotides were added at a final concentration of 100 μM.
To determine whether nucleotide analogs inhibited RSV RNP transcription, compounds were added using a 6 step serial dilution in 5-fold increments. Following a 90 minute incubation at 30° C., the RNP reactions were stopped with 350 μL of Qiagen RLT lysis buffer and the RNA was purified using a Qiagen RNeasy 96 kit. Purified RNA was denatured in RNA sample loading buffer (Sigma) at 65° C. for 10 minutes and run on a 1.2% agarose/MOPS gel containing 2M formaldehyde. […]

Data set [4] relates to Parainfluenza 3 strain C 243. Kind of data set: Parainfluenza cytoprotection assay in Vero cells. Conditions: 168 h, Parainfluenza 3 strain C 243, 7 days, MTS. The class given is cell-based. On the procedure:
(§1) The Parainfluenza Cytoprotection assay uses Vero cells and Parainfluenza 3 strain C 243. Briefly virus and cells are mixed in the presence of test compound and incubated for 7 days. […] Therefore, antiviral effect or cytoprotection is observed when compounds prevent virus replication. Each assay plate contains cell control wells (cells only), virus control wells (cells plus virus), compound toxicity control wells (cells plus compound only), compound colorimetric control wells (compound only), as well as experimental wells (compound plus cells plus virus). Cytoprotection and compound cytotoxicity are assessed by MTS (CellTiter®96 Reagent, Promega, Madison WI) dye reduction. […]
The virus used for this assay is Parainfluenza 3 strain C 243. […] The virus is resuspended and diluted into tissue culture medium such that the amount of virus added to each well is the amount determined to give between 85 to 95% cell killing at 6-7 days post-infection.
At assay termination (7 days post-infection), the assay plates are stained with the soluble tetrazolium-based dye MTS (3-(4,5-dimethylthiazol-2-yl)-5-(3-carboxymethoxyphenyl)-2-(4-sulfophenyl)-2H-tetrazolium; CellTiter®96 Reagent, Promega) to determine cell viability and quantify compound toxicity. […]

Data set [5] in a line: Compound cytotoxicity in Vero cells (MTS). The class given is cell-based. Conditions: African green monkey (Cercopithecus aethiops), concentration resulting in 50% cell death, read-out: TC50. On the procedure:
as §1
At assay termination (7 days post-infection), the assay plates are stained with the soluble tetrazolium-based dye MTS (3-(4,5-dimethylthiazol-2-yl)-5-(3-carboxymethoxyphenyl)-2-(4-sulfophenyl)-2H-tetrazolium; CellTiter®96 Reagent, Promega) to determine cell viability and quantify compound toxicity. MTS is metabolized by the mitochondrial enzymes of metabolically active cells to yield a soluble formazan product, allowing the rapid quantitative analysis of cell viability and compound cytotoxicity. […]

Setting [6] is: RSV-induced cytopathic effect, Hep2 cells, RSV strain A2, 4 days, Cell TiterGlo, read-out: EC50.

Read-outs that look alike come from different tables or passages of the source. Bounds are passed on as bounds.

T1 sequence (P28887 whole entry, looked up, one chain of several): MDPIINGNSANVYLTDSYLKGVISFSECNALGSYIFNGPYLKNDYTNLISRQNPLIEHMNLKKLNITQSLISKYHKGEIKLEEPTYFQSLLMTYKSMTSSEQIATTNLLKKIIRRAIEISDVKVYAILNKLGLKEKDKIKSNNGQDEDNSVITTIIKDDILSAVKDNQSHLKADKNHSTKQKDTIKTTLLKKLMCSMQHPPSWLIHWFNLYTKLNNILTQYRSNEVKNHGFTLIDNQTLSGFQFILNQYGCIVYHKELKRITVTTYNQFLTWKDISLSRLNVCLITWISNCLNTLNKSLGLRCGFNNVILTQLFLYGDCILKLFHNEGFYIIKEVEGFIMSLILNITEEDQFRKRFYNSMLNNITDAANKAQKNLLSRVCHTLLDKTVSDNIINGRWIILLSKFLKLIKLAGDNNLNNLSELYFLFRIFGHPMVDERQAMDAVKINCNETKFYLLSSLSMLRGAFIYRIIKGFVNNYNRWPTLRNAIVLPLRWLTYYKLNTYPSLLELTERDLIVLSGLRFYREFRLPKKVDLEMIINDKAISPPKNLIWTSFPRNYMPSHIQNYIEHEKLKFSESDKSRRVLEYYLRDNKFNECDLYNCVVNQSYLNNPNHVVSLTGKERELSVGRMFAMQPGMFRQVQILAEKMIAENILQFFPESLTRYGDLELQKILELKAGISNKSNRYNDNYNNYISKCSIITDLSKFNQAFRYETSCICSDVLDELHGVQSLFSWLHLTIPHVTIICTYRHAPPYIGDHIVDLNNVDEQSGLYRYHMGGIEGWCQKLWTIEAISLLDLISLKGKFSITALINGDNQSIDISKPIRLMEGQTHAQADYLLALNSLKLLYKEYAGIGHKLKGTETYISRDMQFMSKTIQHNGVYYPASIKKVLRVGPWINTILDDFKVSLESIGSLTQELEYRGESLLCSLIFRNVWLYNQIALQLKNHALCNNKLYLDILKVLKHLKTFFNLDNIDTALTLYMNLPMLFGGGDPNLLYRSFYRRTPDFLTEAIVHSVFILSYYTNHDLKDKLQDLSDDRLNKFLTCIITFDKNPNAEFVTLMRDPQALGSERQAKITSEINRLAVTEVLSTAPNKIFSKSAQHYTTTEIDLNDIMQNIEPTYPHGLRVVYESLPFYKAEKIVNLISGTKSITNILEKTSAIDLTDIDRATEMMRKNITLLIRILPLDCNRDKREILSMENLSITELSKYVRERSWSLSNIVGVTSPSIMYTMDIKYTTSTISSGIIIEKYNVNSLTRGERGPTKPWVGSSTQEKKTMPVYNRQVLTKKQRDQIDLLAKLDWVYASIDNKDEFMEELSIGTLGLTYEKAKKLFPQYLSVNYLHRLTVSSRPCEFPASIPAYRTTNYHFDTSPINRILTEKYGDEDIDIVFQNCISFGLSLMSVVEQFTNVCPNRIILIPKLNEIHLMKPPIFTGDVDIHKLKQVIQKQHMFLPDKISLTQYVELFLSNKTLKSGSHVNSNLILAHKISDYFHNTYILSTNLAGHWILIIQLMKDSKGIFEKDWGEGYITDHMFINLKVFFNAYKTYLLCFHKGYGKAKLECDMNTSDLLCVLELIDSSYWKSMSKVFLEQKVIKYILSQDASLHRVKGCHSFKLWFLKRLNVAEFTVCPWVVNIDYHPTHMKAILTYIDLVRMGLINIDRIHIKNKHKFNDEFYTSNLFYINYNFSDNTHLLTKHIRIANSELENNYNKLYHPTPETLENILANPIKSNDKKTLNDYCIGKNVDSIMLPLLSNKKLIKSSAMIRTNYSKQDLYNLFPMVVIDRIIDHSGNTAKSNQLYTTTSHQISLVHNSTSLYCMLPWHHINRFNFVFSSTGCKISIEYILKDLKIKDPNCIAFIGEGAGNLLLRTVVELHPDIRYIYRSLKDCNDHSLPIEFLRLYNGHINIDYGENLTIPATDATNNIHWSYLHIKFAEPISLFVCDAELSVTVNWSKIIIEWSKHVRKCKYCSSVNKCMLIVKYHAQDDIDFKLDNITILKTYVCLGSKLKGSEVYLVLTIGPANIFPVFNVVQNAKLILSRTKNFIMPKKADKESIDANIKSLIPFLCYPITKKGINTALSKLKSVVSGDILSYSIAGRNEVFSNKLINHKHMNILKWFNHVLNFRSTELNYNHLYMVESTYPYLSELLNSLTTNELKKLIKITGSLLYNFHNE

One may read the EC50 as the concentration needed to bring the measured effect to its halfway point. Consider `C#C[C@@]1(c2ccc3c(N)ncnn23)O[C@H](CO)[C@@H](O)[C@H]1O` [Compound 13, (2S,3R,4S,5R)-2-(4-aminopyrrolo[1,2-f][1,2,4]triazin-7-yl)-2-ethynyl (hydroxymethyl)tetrahydrofuran-3,4-diol], for which the EC50 in data set [1] (setting [6]) was 34 µM. The CC50 at 4 days in data set [2] was more than 100 µM.
For `CCOC(=O)[C@H](C)NP(=O)(N[C@@H](C)C(=O)OCC)OC[C@H]1O[C@@](C#N)(c2ccc3c(N)ncnn23)[C@H](O)[C@@H]1O` [Compound 12, (2S,2'S)-diethyl 2,2′-((((2R,3S,4R,5R)-5-(4-aminopyrrolo[1,2-f][1,2,4]triazinyl)-5-cyano-3,4-dihydroxytetrahydrofuranyl)methoxy)phosphoryl)bis(azanediyl)dipropanoate], in that order: 6.5 µM and more than 100 µM.
As for `CC(C)(C)C(=O)SCCOP(=O)(OCCSC(=O)C(C)(C)C)OC[C@H]1O[C@@](C#N)(c2ccc3c(N)ncnn23)[C@H](O)[C@@H]1O` [Compound 15, S,S′-2,2′-((((2R,3S,4R,5R)-5-(4-aminopyrrolo[1,2-f][1,2,4]triazin-7-yl)-5-cyano-3,4-dihydroxytetrahydrofuran-2-yl)methoxy)phosphoryl)bis(oxy)bis(ethane-2,1-diyl) bis(2,2-dimethylpropanethioate)], the concentration giving a half-maximal response (EC50) in data set [1] (setting [6]) is 0.15 µM. The CC50 at 4 days in data set [2] is more than 100 µM.
Usually IC50 stands for the concentration that gives 50% inhibition. As for `C[C@@]1(c2ccc3c(N)ncnn23)O[C@H](COP(=O)(O)OP(=O)(O)OP(=O)(O)O)[C@@H](O)[C@H]1O` [Compound 19, ((2R, 3S, 4R, 5S)-5-(4-aminopyrrolo[1,2-f][1,2,4]triazin-7-yl)-3,4-dihydroxymethyltetrahydrofuran-2-yl)methyl Tetrahydrogen Triphosphate], the midpoint of inhibition in data set [3], the IC50, lay at 1.5 µM.
The compound `CCOC(=O)[C@H](C)NP(=O)(OC[C@H]1O[C@@](C#N)(c2ccc3c(N)ncnn23)[C@H](O)[C@@H]1O)Oc1ccccc1` (stereo partly drawn) [Compound 10, (2S)-ethyl 2-((((2R,3S,4R,5R)-5-(4-aminopyrrolo[1,2-f][1,2,4]triazin-7-yl)cyano-3,4-dihydroxytetrahydrofuranyl)methoxy)(phenoxy)phosphorylamino)propanoate] registered an EC50 in data set [1] of 0.18 µM. In addition, the CC50 at 4 days in data set [2] amounted to 47 µM.
As for `C#C[C@@]1(c2ccc3c(N)ncnn23)O[C@H](COP(=O)(O)OP(=O)(O)OP(=O)(O)O)[C@@H](O)[C@H]1O` [Compound 18, ((2R, 3S, 4R, 5S)-5-(4-aminopyrrolo[1,2-f][1,2,4]triazin-7-yl)-5-ethynyl-3,4-dihydroxytetrahydrofuran-2-yl)methyl tetrahydrogen triphosphate], in data set [3], inhibition was half-maximal at 1.6 µM (IC50).
On the same count and under the same terms, the figure for `N#C[C@@]1(c2ccc3c(N)ncnn23)O[C@H](COP(=O)(O)OP(=O)(O)OP(=O)(O)O)[C@@H](O)[C@H]1F` [Compound 20, ((2R,3R,4R,5R)-5-(4-aminopyrrolo[1,2-f][1,2,4]triazin-7-yl)-5-cyano-4-fluoro-3-hydroxytetrahydrofuran-2-yl)methyl Tetrahydrogen Triphosphate] is 0.8 µM; for `C[C@@]1(c2ccc3c(N)ncnn23)O[C@H](COP(=O)(O)OP(=O)(O)OP(=O)(O)O)[C@@H](O)[C@H]1F` [Compound 6, ((2R, 3R, 4R, 5S)-5-(4-aminopyrrolo[1,2-f][1,2,4]triazin-7-yl)-4-fluoro-3-hydroxy-5-methyltetrahydrofuran-2-yl)methyl Tetrahydrogen Triphosphate] it is 3.6 µM.
Take `N#C[C@@]1(c2ccc3c(N)ncnn23)O[C@H](CO)[C@@H](O)[C@H]1O` [Compound 1, (2R, 3R, 4S, 5R)-2-(4-aminopyrrolo[1,2-f][1,2,4]triazin-7-yl)-3,4-dihydroxy (hydroxymethyl)tetrahydrofuran-2-carbonitrile]: the EC50 in data set [1] (setting [6]) turned out to be 0.48 µM. For the same compound, the CC50 at 4 days in data set [2] was more than 100 µM. This compound registered an IC50 in data set [4] of 1.71 µM. The CC50 at 7 days in data set [5] is more than 30 µM.
Take `C#C[C@@]1(c2ccc3c(N)ncnn23)O[C@H](COP(=O)(OCCSC(=O)C(C)(C)C)OCCSC(=O)C(C)(C)C)[C@@H](O)[C@H]1O` [Compound 16, S,S′-2,2′-((((2R, 3S, 4R, 5S)-5-(4-aminopyrrolo[1,2-f][1,2,4]triazin-7-yl)-5-ethynyl-3,4-dihydroxytetrahydrofuran-2-yl)methoxy)phosphoryl)bis(oxy)bis(ethane-2,1-diyl) bis(2,2-dimethylpropanethioate)]: the response in data set [1] was half-maximal at 3.3 µM (EC50). Moreover, the CC50 at 4 days in data set [2] was more than 100 µM.
Turning to `C[C@@]1(c2ccc3c(N)ncnn23)O[C@H](CO)[C@@H](O)[C@H]1O` [Compound 14], the EC50 in data set [1] (setting [6]) worked out at 2.7 µM. Besides, in data set [2], the CC50 at 4 days came out at 92 µM. For the same compound, 5.23 µM corresponded to half-maximal inhibition in data set [4] (IC50). Moreover, the CC50 at 7 days in data set [5] is more than 30 µM.
